Test results reported in patent US20090124659A1, “Combination therapy using 1-aminocyclohexane derivatives and acetylcholinesterase and inhibitors” (priority 2002, published 2009).
Counter-ions that a name gives are not always drawn.

Key:
[1] = system: patients with moderate-to-severe AD; details: 24 weeks; groups of 202 and 201
[2] = 5 mg/day for 28 days in healthy subjects; cited from earlier work
[3] = system: patients with moderate-to-severe AD; details: Week 24; memantine 20 mg/day or placebo added to stable donepezil
[4] = system: patients with moderate-to-severe AD; details: Week 24; memantine 20 mg/day or placebo added to stable donepezil; remark: listed apart in the source
[5] = system: patients with moderate-to-severe AD; details: Week 24; memantine 20 mg/day or placebo added to stable donepezil; remark: listed apart in the source
[6] = cited from earlier work
cytochrome P450 system = details: in vitro studies; cited from earlier work
clinical = details: both, human, plasma, po
[7] = system: human neuroblastoma cells SK-N-SH; test: APP processing in cultured SK-N-SH cells (Western immunoblotting or ELISA); format: cell-based; details: memantine 1-4 μM
Description: NMDA receptors have been also implicated in the signalling cascades affecting or affected by APP processing. […] The present inventor and co-workers have studied the effect of memantine (NMDA receptor antagonist) on the processing of APP in cultured human neuroblastoma cells SK-N-SH. Cells were treated with memantine (1-4 μM) or vehicle, and the levels of sAPP and βAP40 in the conditioned media and the total intracellular APP were measured by Western immunoblotting or ELISA using specific antibodies.

healthy young subjects = details: single 10 mg memantine alone or with multiple daily doses of 10 mg donepezil
[8] = system: human neuroblastoma cells SK-N-SH; test: Cell viability and toxicity, MTT and LDH assays; details: memantine 1-4 μM
[9] = humans; cited from earlier work
[10] = system: human neuroblastoma cells; details: in the absence of any detectable cellular damage or toxicity; cited from earlier work

## COc1cc2c(cc1OC)C(=O)C(CC1CCN(Cc3ccccc3)CC1)C2 (racemic) [donepezil, (R,S)-1-benzyl-4-[(5,6-dimethoxy-1-indanon)-2yl]-methylpiperidine hydrochloride]
[1]
  Agitation, %: (11.9) %
  Confusion, %: (2.0) %
  Constipation, %: (1.5) %
  Coughing, %: (1.0) %
  Depression, %: (3.0) %
  Diarrhoea, %: (8.5) %
  Dizziness, %: (8.0) %
  Fall, %: (7.0) %
  Fatigue, %: (3.5) %
  Gait abnormal, %: (1.0) %
  Headache, %: (2.5) %
  Hypertension, %: (1.5) %
  Inflicted injury, %: (8.0) %
  Influenza-like symptoms, %: (6.5) %
  Oedema peripheral, %: (4.0) %
  Pain, %: (0.5) %
  Pat. with any AE, %: (71.6) %
  Somnolence, %: (3.5) %
  Upper resp. tract infection, %: (6.5) %
  Urinary incontinence, %: (3.0) %
  Urinary tract infection, %: (5.0) %
  Vomiting, %: (3.0) %
[2]
  time of peak plasma concentrations: approximately 3 hours
[3]
  ADCS-ADL, change from Baseline to Endpoint (LOCF), LS mean change (SE): −3.4 (0.51)
[4]
  SIB, change from Baseline to Endpoint (LOCF), LS mean change (SE): −2.5 (0.69)
[5]
  CIBIC-Plus at Endpoint (LOCF), LS mean (SD): 4.7 (1.05)

## CC12CC3CC(C)(C1)CC(N)(C3)C2 [memantine, 1-amino-3,5-dimethyl adamantane]
[6]; after administration of 14C memantine
  dose recovered, mainly in the urine: 84%
[6]; in vivo, po
  absolute bioavailability: approximately 100%
[6]; in vivo
  half-life: 60 to 80 h
Cytochrome P450 system
  potential of drug interactions with drugs metabolized via the cytochrome P450 system: low potential
clinical
  Cmax: 13 ng/mL
clinical; 10 mg
  Cmax: 12.8 ng/mL
  Tmax: 6.5 h
[7]
  levels of total intracellular APP: without affecting
  sAPP level in the conditioned media: decrease
  βAP40 level in the conditioned media: decrease
Healthy young subjects
  safety and tolerability: safe and well-tolerated
[8]
  cell viability and toxicity (MTT and LDH assays): not affected
[9]
  therapeutically effective circulating concentration: 1 µM

## Cl.Nc1c2c(nc3ccccc13)CCCC2 [tacrine, 1,2,3,4-tetrahydro-9-aminoacridine hydrochloride]
[10]
  release of sAPPα, total βAP, βAP40 and βAP42: reduce
